Laboratory results from patent US5935955A, “Pharmaceutical piperazine compounds” (Xenova Limited, priority 1994, dated 1999).
Structures can show the parent of a compound that is named as a salt. Where two headings read alike, the source gives them in different places.

Tests used:
AR 1.0 cells [1] = assay: Potentiation index for doxorubicin (doxorubicin titration with fixed concentration of compound); format: cell-based, mouse; conditions: RMA at 1 μM; doxorubicin, four days
Method: The EMT6 mouse mammary carcinoma cell line and the MDR resistant sublime AR 1.0 were cultured in RPMI 1640 medium containing 10% foetal calf serum and 2 mM glutamine at 37° C. in 5% CO2. Cells were passaged between 1 in 200 and 1 in 2000 in the case of the parental cell line and between 1 in 20 and 1 in 200 in the case of the MDR resistant subline, after trypsinisation (0.25% trypsin, 0.2 gl^-1, EDTA).
Cells were cultured for four days with a titration of doxorubicin (0.01 nm-50 μM) in the presence of a fixed concentration of each compound. Proliferation was quantified as described by Skehan et. al, loc cit. The IC50 (concentration required to reduce proliferation to 50% of the untreated controls) for doxorubicin alone and with each compound were derived and used to calculate the potentiation index (PI): [formula]

AR 1.0 cells [2] = assay: Compound toxicity (proliferation, sulphorhodamine B); format: cell-based; conditions: Mus musculus, 96 h; compound alone; AR 1.0 cells; four day incubation; read-out: Compound toxicity (IC50)
AR 1.0 cells [3] = assay: Drug accumulation assay (tritiated daunorubicin); format: cell-based; conditions: Mus musculus; for IC50: daunorubicin 2 μM, 1 hr at 37° C., read-out: IC50 accumulation; for Emax: 1 h, read-out: Max accumulation
Method: AR 1.0 cells were seeded into 96 well opaque culture plates (Canberra Packard). The assay medium contained a mixture of tritiated Daunorubicin (DNR), a cytotoxic agent, and unlabelled DNR (0.3 μCi/ml; 2 μM). Compounds of formula I were serially diluted in assay medium over a range of concentrations from 5 nM to 100 μM. The cells were incubated at 37° C. for 1 hr before washing and determination of cell associated radioactivity. Results were expressed as % maximum accumulation where 100% accumulation is that observed in the presence of the known RMA verapamil at 100 μM. Where possible an IC50 was determined.

AR 1.0 cells [4] = assay: Potentiation of doxorubicin toxicity (fixed doxorubicin 0.86 μM, proliferation, sulphorhodamine B); format: cell-based, mouse; conditions: for IC50: with doxorubicin 0.86 μM, four day incubation, 5760 min, read-out: Toxicity with cytotoxic agent (IC50)
Excerpt: Compounds of formula (I) were examined for their ability to potentiate the toxicity of doxorubicin in AR 1.0 cells.

[5] = % maximum accumulation, 100% = verapamil at 100 μM, compound 5 nM to 100 μM

Structure (SMILES)	IC50 (AR 1.0 cells [3])	IC50 (AR 1.0 cells [2])	Emax (AR 1.0 cells [3]; [5])	IC50 (AR 1.0 cells [4])	also measured
COc1cc2c(cc1OC)CN(CCc1ccc(NC(=O)c3ccc(/C=c4\[nH]c(=O)/c(=C/c5ccccc5)n(C)c4=O)cc3)cc1)CC2 [Compound 9006, N-(4-(2-(6,7-Dimethoxy-1,2,3,4-tetrahydro-2-isoquinolyl)ethyl)phenyl)-4-((3Z,6Z)-6-benzylidene-1-methyl-2,5-dioxo-3-piperazinylidene)methylbenzamide]	0.4 µM	2 µM	–	–	Potentiation index (AR 1.0 cells [1]): 1000
CN1CCN(CCNC(=O)c2ccc(/C=c3\[nH]c(=O)/c(=C/c4ccccc4)n(C)c3=O)cc2)CC1 [Compound 9007, N-(2-(4-Methyl-1-piperazinyl)ethyl)-4-((3Z,6Z)-6-benzylidene-1-methyl-2,5-dioxo-3-piperazinylidene)methylbenzamide]	–	–	30%	–	–
CN(C)CC(O)COc1ccc(/C=c2\[nH]c(=O)/c(=C/c3ccccc3)n(C)c2=O)cc1 (stereo not drawn) [Compound 9023, (3Z,6Z)-6-Benzylidene-3-(4-(3-dimethylamino-2-hydroxypropoxy)benzylidene)-1-methyl-2,5-piperazinedione]	–	10 µM	30%	5 µM	–
Cn1c(=O)/c(=C/c2ccc(C(=O)Nc3ccc(CCN4CCN(c5cccc(C(F)(F)F)c5)CC4)cc3)cc2)[nH]c(=O)/c1=C/c1ccccc1 [Compound 9049, N-(4-(2-(4-(3-Trifluoromethylphenyl)-1-piperazinyl)ethyl)phenyl)-4-((3Z,6Z)-6-benzylidene-1-methyl-2,5-dioxo-3-piperazinylidene)methylbenzamide]	–	2 µM	20%	–	Potentiation index (AR 1.0 cells [1]): 15
Cn1c(=O)/c(=C/c2ccc(C(=O)Nc3ccc(N4CCOCC4)cc3)cc2)[nH]c(=O)/c1=C/c1ccccc1 [Compound 9054, N-(4-Morpholinophenyl)-4-((3Z,6Z)-6-benzylidene-1-methyl-2,5-dioxo-3-piperazinylidene)methylbenzamide, hydrochloride]	–	50 µM	32%	30 µM	–
CN(CCNC(=O)c1ccc(/C=c2\[nH]c(=O)/c(=C/c3ccccc3)n(C)c2=O)cc1)C(c1ccccc1)c1ccccc1 [Compound 9076, N-(2-Diphenylmethylmethylaminoethyl)-4-((3Z,6Z)-6-benzylidene-1-methyl-2,5-dioxo-3-piperazinylidene)methylbenzamide, hydrochloride]	–	–	44%	–	–
Cn1c(=O)/c(=C/c2ccc(C(=O)Nc3ccc(CCN4CCc5c([nH]c6ccccc56)C4)cc3)cc2)[nH]c(=O)/c1=C/c1ccccc1 [Compound 9080, N-(4-(2-(1,2,3,4-Tetrahydro-β-carbolin-2-yl)ethyl)phenyl)-4-((3Z,6Z)-6-benzylidene-1-methyl-2,5-dioxo-3-piperazinylidene)methylbenzamide]	–	–	–	–	Emax (AR 1.0 cells [3]): 18%
Cn1c(=O)/c(=C/c2ccc(C(=O)Nc3ccc(CN4CCc5c([nH]c6ccccc56)C4)cc3)cc2)[nH]c(=O)/c1=C/c1ccccc1 [Compound 9096, N-(4-(1,2,3,4-Tetrahydro-β-carbolin-2-yl)methylphenyl)-4-((3Z,6Z)-6-benzylidene-1-methyl-2,5-dioxo-3-piperazinylidene)methylbenzamide]	–	–	–	–	Emax (AR 1.0 cells [3]): 20%
Cn1c(=O)/c(=C/c2ccc(C(=O)Nc3ccc(CCN4CCN(c5ccccc5)CC4)cc3)cc2)[nH]c(=O)/c1=C/c1ccccc1 [Compound 9103, N-(4-(2-(4-Phenyl-1-piperazinyl)ethyl)phenyl)-4-((3Z,6Z)-6-benzylidene-1-methyl-2,5-dioxo-3-piperazinylidene)methylbenzamide]	–	–	20%	–	–
COc1cc2c(cc1OC)CN(CCCc1ccc(NC(=O)c3cccc(/C=c4\[nH]c(=O)/c(=C/c5ccccc5)n(C)c4=O)c3)cc1)CC2 [Compound 9161, N-(4-(3-(6,7-Dimethoxy-1,2,3,4-tetrahydro-2-isoquinolyl)propyl)phenyl)-3-((3Z,6Z)-6-benzylidene-1-methyl-2,5-dioxo-3-piperazinylidene)methylbenzamide,hydrochloride]	–	–	20%	–	–
COc1cccc2c1C(=O)c1c(O)c3c(c(O)c1C2=O)C[C@@](O)(C(=O)CO)C[C@@H]3O[C@H]1C[C@H](N)[C@H](O)[C@H](C)O1 [doxorubicin, reference compound]	–	–	–	–	Toxicity of doxorubicin alone (AR 1.0 cells [4]; doxorubicin alone, 0.86 μM, AR 1.0 cells): non-toxic

Now from value to compound, other results behind:

IC50 (AR 1.0 cells [3])	Structure (SMILES)	IC50 (AR 1.0 cells [2])	Emax (AR 1.0 cells [3]; [5])	IC50 (AR 1.0 cells [4])	also measured
3 µM	COc1cc2c(cc1OC)CN(CCNC(=O)c1ccc(/C=c3\[nH]c(=O)/c(=C/c4ccccc4)n(C)c3=O)cc1)CC2 [Compound 9008, N-(2-(6,7-Dimethoxy-1,2,3,4-tetrahydro-2-isoquinolyl)ethyl)-4-((3Z,6Z)-6-benzylidene-1-methyl-2,5-dioxo-3-piperazinylidene)methylbenzamide]	10 µM	–	2 µM	–
100 µM	CN1CCN(C(=O)c2ccc(/C=c3\[nH]c(=O)/c(=C/c4ccccc4)n(C)c3=O)cc2)CC1 [Compound 9052, 1-(4-((3Z,6Z)-6-Benzylidene-1-methyl-2,5-dioxo-3-piperazinylidene)methylbenzoyl)-4-methylpiperazine, hydrochloride]	–	–	–	–
50 µM	Cn1c(=O)/c(=C/c2ccc(C(=O)NCCN3CCOCC3)cc2)[nH]c(=O)/c1=C/c1ccccc1 [Compound 9053, N-(2-Morpholinoethyl)-4-((3Z,6Z)-6-benzylidene-1-methyl-2,5-dioxo-3-piperazinylidene)methylbenzamide, hydrochloride]	40 µM	–	–	–
6 µM	Cn1c(=O)/c(=C/c2ccc(C(=O)Nc3ccc(CCN4CCc5ccccc5C4)cc3)cc2)[nH]c(=O)/c1=C/c1ccccc1 [Compound 9065, N-(4-(2-(1,2,3,4-Tetrahydro-2-isoquinolyl)ethyl)phenyl)-4-((3Z,6Z)-6-benzylidene-1-methyl-2,5-dioxo-3-piperazinylidene)methylbenzamide]	2 µM	–	–	Potentiation index (AR 1.0 cells [1]): 15
5 µM	C=CCNC(=O)c1ccc(/C=c2\[nH]c(=O)/c(=C/c3ccccc3)n(C)c2=O)cc1 [Compound 9070, N-Allyl-4-((3Z,6Z)-6-benzylidene-1-methyl-2,5-dioxo-3-piperazinylidene)methylbenzamide]	40 µM	–	–	–
2 µM	Cn1c(=O)/c(=C/c2cccc(C(=O)Nc3ccc(CCN4CCN(c5ccccc5)CC4)cc3)c2)[nH]c(=O)/c1=C/c1ccccc1 [Compound 9083, N-(4-(2-(4-Phenyl-1-piperazinyl)ethyl)phenyl)-3-((3Z,6Z)-6-benzylidene-1-methyl-2,5-dioxo-3-piperazinylidene)methylbenzamide]	3 µM	–	0.1 µM	–
5 µM	COc1cc2c(cc1OC)CN(CCc1ccc(/C=c3\[nH]c(=O)/c(=C/c4ccccc4)n(C)c3=O)cc1)CC2 [Compound 9115, (3Z,6Z)-6-Benzylidene-3-(4-(2-(6,7-dimethoxy-1,2,3,4-tetrahydro-2-isoquinolyl)ethyl)benzylidene)-1-methyl-2,5-piperazinedione]	60 µM	–	2 µM	–
4 µM	Cn1c(=O)/c(=C/c2ccc(C(=O)NCCN3CCc4ccccc4C3)cc2)[nH]c(=O)/c1=C/c1ccccc1 [Compound 9116, N-(2-(1,2,3,4-Tetrahydro-2-isoquinolyl)ethyl)-4-((3Z,6Z)-6-benzylidene-1-methyl-2,5-dioxo-3-piperazinylidene)methylbenzamide, hydrochloride]	8 µM	–	1 µM	–
5 µM	COc1ccc(CCNC(=O)c2ccc(/C=c3\[nH]c(=O)/c(=C/c4ccccc4)n(C)c3=O)cc2)cc1OC [Compound 9117, N-(3,4-Dimethoxyphenethyl)-4-((3Z,6Z)-6-benzylidene-1-methyl-2,5-dioxo-3-piperazinylidene)methylbenzamide]	8 µM	–	3 µM	–
3 µM	COc1cc2c(cc1OC)CN(Cc1ccc(NC(=O)c3cccc(/C=c4\[nH]c(=O)/c(=C/c5ccccc5)n(C)c4=O)c3)cc1)CC2 [Compound 9128, N-(4-(6,7-Dimethoxy-1,2,3,4-tetrahydro-2-isoquinolyl)methylphenyl)-3-((3Z,6Z)-6-benzylidene-1-methyl-2,5-dioxo-3-piperazinylidene)methylbenzamide]	10 µM	–	2 µM	–
2 µM	COc1ccc(CCN(C)CCNC(=O)c2cccc(/C=c3\[nH]c(=O)/c(=C/c4ccccc4)n(C)c3=O)c2)cc1OC [Compound 9137]	12 µM	–	4.5 µM	–
1.7 µM	COc1cc2c(cc1OC)CN(CC1CCN(C(=O)c3ccc(/C=c4\[nH]c(=O)/c(=C/c5ccccc5)n(C)c4=O)cc3)CC1)CC2 [Compound 9200, 1-(4-((3Z,6Z)-6-Benzylidene-1-methyl-2,5-dioxo-3-piperazinylidene)methylbenzoyl)-4-(6,7-dimethoxy-1,2,3,4-tetrahydroisoquinolyl)methylpiperidine]	13 µM	–	0.8 µM	–
